Source: patent publication US10329324B2 (viDA Therapeutics Inc., priority 2013, dated 2019)
pIC50: −log10 of the molar value. Like-named read-outs stand apart in the source and are kept apart here.

Columns and labels:
[1] = Kinetic solubility determination in PBS; format: physicochemical; settings: phosphate buffered saline (PBS 1×), 21 °C, pH 7.4, aqueous buffer, kinetic from dmso stock, PBS 1X pH 7.4, 2.0% DMSO, 24 hour incubation at ambient temperature
Procedure, shortened: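 DMSO stocks were diluted into PBS (1×) pH 7.4 to 2.0% final DMSO and a maximum theoretical concentration of typically 200 μM. After 24 hour incubation at ambient temperature (20.5-21.7° C.), samples were vacuum filtered. The filtrate was quantified by chemiluminescent nitrogen detection against a nitrogen calibration curve, with background-corrected values given in μM and μg/mL.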

[2] = target: T1, human Granzyme B (hGzmB) (Homo sapiens, UniProt P10144); assay: Human Granzyme B enzymatic inhibition assay (fluorogenic, kinetic); format: biochemical; settings: activity codes, Table 7; read-out: IC50 Activity Range
T1 construct: purchased Froelich Lab, Northshore University Health Systems Research Institute, Evanston, Ill., USA
Procedure, shortened: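 Human Granzyme B preincubated with compound for 30 min total (5 min shaking, 20 min bench, then reaction temperature). Fluorogenic substrate added and read kinetically, 25 cycles at 1-min intervals. Percent inhibition at one or two concentrations or 8–12-point 3-fold dose response from 20 uM, replicates, with IC50 by non-linear regression.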

[3] = read-out: Solubility in aqueous PBS Buffer (1X, pH 7.4)
[4] = read-out: Solubility in aqueous PBS Buffer (1X, pH 7.4), ug/mL

T1 sequence (P10144 21-247): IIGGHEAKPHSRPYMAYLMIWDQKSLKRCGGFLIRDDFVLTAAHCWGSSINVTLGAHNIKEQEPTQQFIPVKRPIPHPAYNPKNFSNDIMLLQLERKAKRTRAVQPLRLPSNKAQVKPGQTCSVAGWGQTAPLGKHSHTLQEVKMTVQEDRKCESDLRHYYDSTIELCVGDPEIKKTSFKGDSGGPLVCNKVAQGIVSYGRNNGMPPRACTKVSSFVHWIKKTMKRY

| Structure (SMILES) | solubility at 24 h [1, 3] [µM] | solubility at 24 h [1, 4] [µg/mL] | pIC50 [2] |
| --- | --- | --- | --- |
| CC[C@H](C)[C@H](NC(=O)C(F)(F)C(F)(F)C(=O)O)C(=O)NCC(=O)N1c2ccccc2C[C@H]1C(=O)NCc1nn[nH]n1 [Example A43, 2,2,3,3-Tetrafluoro-3-{[(1S,2S)-2-Methyl-1-({2-Oxo-2-[(2S)-2-[(2H-1,2,3,4-Tetrazol-5-Ylmethyl)Carbamoyl]-2,3-Dihydro-1H-Indol-1-Yl]Ethyl}Carbamoyl)Butyl]Carbamoyl}Propanoic Acid] | 583 | 342 | > 7.00 |
| CC[C@H](C)[C@H](NC(=O)CN(C)CC(=O)O)C(=O)NCC(=O)N1c2ccccc2C[C@H]1C(=O)NCc1nn[nH]n1 [Example A44, 2-[Methyl({[(1S,2S)-2-Methy-1-({2-Oxo-2-[(2S)-2-[(2H-1,2,3,4-Tetrazol-5-Ylmethyl)Carbamoyl]-2,3-Dihydro-1H-Indol-1-Yl]Ethyl}Carbamoyl)Butyl]Carbamoyl}Methyl)Amino]Acetic Acid] | 724 | 467 | 6.00 to 7.00 |
| O=C(O)CCC(=O)N[C@H](C(=O)NCC(=O)N1c2ccccc2C[C@H]1C(=O)NCc1nn[nH]n1)C1CCCC1 [Example A45, 3-{[(S)-Cyclopentyl({2-Oxo-2-[(2S)-2-[(2H-1,2,3,4-Tetrazol-5-Ylmethyl)Carbamoyl]-2,3-Dihydro-1H-Indol-1-Yl]Ethyl}Carbamoyl)Methyl]Carbamoyl}Propanoic Acid] | 682 | 359 | > 7.00 |
| CC(C)[C@H](NC(=O)CCC(=O)O)C(=O)NCC(=O)N1c2ccccc2C[C@H]1C(=O)NCc1nn[nH]n1 [Example A46, 3-{[(1S)-2-Methyl-1-({2-Oxo-2-[(2S)-2-[(2H-1,2,3,4-Tetrazol-5-Ylmethyl)Carbamoyl]-2,3-Dihydro-1H-Indol-1-Yl]Ethyl}Carbamoyl)Propyl]Carbamoyl}Propanoic Acid] | > 750 | > 375 | > 7.00 |
| CC[C@H](C)[C@H](NC(=O)CCC(C)(C)C(=O)O)C(=O)NCC(=O)N1c2ccccc2C[C@H]1C(=O)NCc1nn[nH]n1 [Example A52, 2,2-Dimethyl-4-{[(1S,2S)-2-Methyl-1-({2-Oxo-2-[(2S)-2-[(2H-1,2,3,4-Tetrazol-5-Ylmethyl)Carbamoyl]-2,3-Dihydro-1H-Indol-1-Yl]Ethyl}Carbamoyl)Butyl]Carbamoyl}Butanoic Acid] | > 750 | > 418 | > 7.00 |
| CC[C@H](C)[C@H](NC(=O)CC(C)(C)C(=O)O)C(=O)NCC(=O)N1c2ccccc2C[C@H]1C(=O)NCc1nn[nH]n1 [Example A53, 2,2-Dimethyl-3-{[(1S,2S)-2-Methyl-1-({2-Oxo-2-[(2S)-2-[(2H-1,2,3,4-Tetrazol-5-Ylmethyl)Carbamoyl]-2,3-Dihydro-1H-Indol-1-Yl]Ethyl}Carbamoyl)Butyl]Carbamoyl}Propanoic Acid] | > 750 | > 407 | > 7.00 |
| CC[C@H](C)[C@H](NC(=O)C(C)(C)CCC(=O)O)C(=O)NCC(=O)N1c2ccccc2C[C@H]1C(=O)NCc1nn[nH]n1 [Example A55, 4,4-Dimethyl-4-{[(1S,2S)-2-Methyl-1-({2-Oxo-2-[(2S)-2-[(2H-1,2,3,4-Tetrazol-5-Ylmethyl)Carbamoyl]-2,3-Dihydro-1H-Indol-1-Yl]Ethyl}Carbamoyl)Butyl]Carbamoyl}Butanoic Acid] | > 750 | > 418 | > 7.00 |
| CC[C@H](C)[C@H](NC(=O)C(C)(C)CC(=O)O)C(=O)NCC(=O)N1c2ccccc2C[C@H]1C(=O)NCc1nn[nH]n1 [Example A56, 3,3-Dimethyl-3-{[(1S,2S)-2-Methyl-1-({2-Oxo-2-[(2S)-2-[(2H-1,2,3,4-Tetrazol-5-Ylmethyl)Carbamoyl]-2,3-Dihydro-1H-Indol-1-Yl]Ethyl}Carbamoyl)Butyl]Carbamoyl}Propanoic Acid] | > 750 | > 407 | > 7.00 |
| CC[C@H](C)[C@H](NC(=O)Cc1ccccc1)C(=O)NCC(=O)N1c2ccccc2C[C@H]1C(=O)NCc1c[nH]nn1 [Example B1, (2S)-1-{2-[(2S,3S)-3-Methyl-2-(2-Phenylacetamido)Pentanamido]Acetyl}-N-(1H-1,2,3-Triazol-4-Ylmethyl)-2,3-Dihydro-1H-Indole-2-Carboxamide] | 97 | 62 | 6.00 to 7.00 |
| CC(C)[C@H](NC(=O)Cc1ccccc1)C(=O)NCC(=O)N1c2ccccc2C[C@H]1C(=O)NCc1nn[nH]n1 [Example C1, (2S)-1-{2-[(2S)-3-Methyl-2-(2-Phenylacetamido)Butanamido]Acetyl}-N-(2H-1,2,3,4-Tetrazol-5-Ylmethyl)-2,3-Dihydro-1H-Indole-2-Carboxamide] | > 150 | > 78 | 6.00 to 7.00 |
| CC[C@H](C)[C@H](NC(=O)Cc1ccccc1)C(=O)N[C@@H](C)C(=O)N1c2ccccc2C[C@H]1C(=O)NCc1nn[nH]n1 [Example C11, (2S)-1-[(2S)-2-[(2S,3S)-3-Methyl-2-(2-Phenylacetamido)Pentanamido]Propanoyl]-N-(2H-1,2,3,4-Tetrazol-5-Ylmethyl)-2,3-Dihydro-1H-Indole-2-Carboxamide] | 125 | 68 | 5.00 to 6.00 |
| CC[C@H](C)[C@H](NC(=O)Cc1ccccc1)C(=O)N[C@H](C)C(=O)N1c2ccccc2C[C@H]1C(=O)NCc1nn[nH]n1 [Example C12, (2S)-1-[(2R)-2-[(2S,3S)-3-Methyl-2-(2-Phenylacetamido)Pentanamido]Propanoyl]-N-(2H-1,2,3,4-Tetrazol-5-Ylmethyl)-2,3-Dihydro-1H-Indole-2-Carboxamide] | 112 | 61 | < 5.00 |
| CC[C@H](C)[C@H](NC(=O)Cc1ccccc1)C(=O)N[C@@H](CCC(=O)O)C(=O)N1c2ccccc2C[C@H]1C(=O)NCc1nn[nH]n1 [Example C13, (4S)-4-[(2S,3S)-3-Methyl-2-(2-Phenylacetamido)Pentanamido]-5-Oxo-5-[(2S)-2-[(2H-1,2,3,4-Tetrazol-5-Ylmethyl)Carbamoyl]-2,3-Dihydro-1H-Indol-1-Yl]Pentanoic Acid] | > 750 | > 454 | 6.00 to 7.00 |
| CC[C@H](C)[C@H](NC(=O)Cc1ccccc1)C(=O)NCC(=O)N1c2cc(N)ccc2C[C@H]1C(=O)NCc1nn[nH]n1 [Example C20, (2S)-6-Amino-1-{2-[(2S,3S)-3-Methyl-2-(2-Phenylacetamido)Pentanamido]Acetyl}-N-(2H-1,2,3,4-Tetrazol-5-Ylmethyl)-2,3-Dihydro-1H-Indole-2-Carboxamide] | 596 | 348 | 6.00 to 7.00 |
| CC[C@H](C)[C@H](NC(=O)Cc1ccccc1)C(=O)NCC(=O)N1c2cc(NC(=O)CCC(=O)O)ccc2C[C@H]1C(=O)NCc1nn[nH]n1 [Example C22, 3-{[(2S)-1-{2-[(2S,3S)-3-Methyl-2-(2-Phenylacetamido)Pentanamido]Acetyl}-2-[(2H-1,2,3,4-Tetrazol-5-Ylmethyl)Carbamoyl]-2,3-Dihydro-1H-Indol-6-Yl]Carbamoyl}Propanoic Acid] | > 750 | > 486 | > 7.00 |
